Measurements: paper PMC9715946, “Bioenhancing effects of piperine and curcumin on triterpenoid pharmacokinetics and neurodegenerative metabolomes from Centella asiatica extract in beagle dogs” (Scientific Reports, 2022)

How the values were obtained:
[1] = Pharmacokinetic study: plasma triterpenoids by LCMS, non-compartmental analysis; set-up: species or system beagle dogs; conditions: dog, in vivo; for Tmax: 20 mg/kg
From the text: The proposed animal experiment was approved by the Institutional Animal Care and Use Committee of the Chulalongkorn University Laboratory Animal Centre (CULAC), Chulalongkorn University, Bangkok, Thailand (Protocol number 2073029, Approval date: […] The dogs were fed with a normal dog diet (Beauty Pro, Nippon Pet Food Co. Ltd.) once a day and water ad libitum. Two groups of four dogs were randomly used with a 2-week washout period. […] After receiving the test substances, the dogs were transferred to a metabolic cage for 48 h for the collection of urine and faeces. All animal procedures were performed in accordance with the ethical principles, regulations, and guidelines for the use of animals (National Research Council of Thailand, 2015). This study was conducted in compliance with the ARRIVE guidelines. Four experimental groups received the oral test compound once daily for seven consecutive days, as follows: ([…] 20 […] 20 mg/kg + piperine 20 mg/kg; ([…] 20 mg/kg + curcumin 20 mg/kg; and (iv) […] 20 mg/kg + piperine 20 mg/kg + curcumin 20 mg/kg. The test substance powders received from the suppliers were packed into gelatine capsule, and the dogs were orally administered two to four capsules in the morning, according to the number of test substances required in the experimental plan. Blood samples (2-3 mL) were withdrawn from the cephalic or saphenous vein using an IV catheter and placed in heparinised tubes. […] The pre-dose and 24 h post-dose blood chemistry parameters were determined by the Small Animal Hospital, Faculty of Veterinary Science, Chulalongkorn University for all dogs, in order to monitor the health status of the dogs. […] All biological samples were kept at - 80 °C until required for analysis. Where the concentration of the samples exceeded the linear calibration curve, blank matrices were used to dilute the sample before protein precipitation. Methanol was used to extract the major triterpenoids from the biological samples for LCMS analysis. In brief, 50 μL of the biological sample was added to 200 μL methanol containing glycyrrhizin and glycyrrhetinic acid as internal standards. The mixture was then centrifuged at 12,000g for 10 min at 4 °C to collect the supernatant, and 10 μL of the supernatant was injected into the LCMS system to measure the concentration of the targeted analytes. […] A Synergi Fusion-RP C18 column (Phenomenex Inc.) was selected as the stationary phase and maintained at 40 °C in the column oven. […] The lower limit of quantification (LLOQ) of each of the compounds in this study ranged from 1.00 to 10.00 μg/L, according to the compound. After oral administration, pharmacokinetic parameters were determined by PK solution software version 2.0 (Submit Research Services, USA.) using non-compartmental analysis. The maximum plasma concentration (Cmax) and time to reach maximum plasma concentration (Tmax) were calculated directly from the concentration-time curves. The area under the curve from time 0-24 h (AUC0-24) was determined by the trapezoidal method and extrapolated to time infinity by the equation AUC0-inf = AUC0-24 + (Clast/kel), where Clast is the last measurable plasma concentration and kel is the elimination rate constant. The rate of […] was equal to - 2.303 × slope. The mean residence time (MRT) was calculated as AUMC0-inf/AUC0-inf, where AUMC0-inf is the area under the first moment curve. The volume of distribution (Vd) was equivalent to dose/C0, where C0 is the concentration of drug measured in plasma at time zero. The total clearance (CL) was equal to dose/AUC0-inf, and the elimination half-life was determined by 0.693/kel. […] The difference in blood chemistry parameters pre-dose and post-dose was compared using Student's t test. SPSS version 22.0 (IBM Corp.) was used to determine statistically significant differences between the experimental groups. […]

[2] = piperine in combination, self-emulsifying drug delivery systems; cited from earlier work
[3] = in combination with 100 mg/kg of curcumin; cited from earlier work
[4] = set-up: method as in PMID 19934593; conditions: pre-treatment with curcumin 60 mg/kg; cited from earlier work

C[C@H]1[C@H](C)CC[C@]2(C(=O)O)CC[C@]3(C)C(=CC[C@@H]4[C@@]5(C)C[C@@H](O)[C@H](O)[C@@](C)(CO)[C@@H]5CC[C@]43C)[C@H]12 [Asiatic acid, asiatic acid]
Increase of systemic exposure (Cmax and AUC) by Centell-S + piperine compared to Centell-S alone ([1]; male, beagle): 1.5 to 3.0 fold | Accumulation ratio ([1]; male, beagle, 7 days): 1.05–1.44 | Tmax ([1]; male, beagle, po, Time to reach maximum plasma concentration): 2 to 4 h | Tmax ([1]; male, beagle, po, Tmax): 2 h

C=C(C)[C@@H]1CCC(C)=C[C@H]1c1c(O)cc(CCCCC)cc1O [cannabidiol]
Improvement of oral bioavailability compared to the control group [2]: approximately 2.5 fold

CC(=O)O[C@@]12CO[C@@H]1C[C@H](O)[C@@]1(C)C(=O)[C@H](O)C3=C(C)[C@@H](OC(=O)[C@H](O)[C@@H](NC(=O)OC(C)(C)C)c4ccccc4)C[C@@](O)([C@@H](OC(=O)c4ccccc4)[C@H]21)C3(C)C [docetaxel]
Increase of bioavailability compared to the control group [3]: approximately eight-fold

CCn1cc(C(=O)O)c(=O)c2cc(F)c(N3CCNCC3)cc21 [norfloxacin]
Increase of AUC compared with the control group [4]: approximately two-fold

madecassoside
Increase of systemic exposure (Cmax and AUC) by Centell-S + piperine compared to Centell-S alone [1]: 1.5 to 3.0 fold | Time to reach maximum plasma concentration [1]: 2 to 4 h | Time to reach maximum plasma concentration ([1]; po): 1 to 2 h
